What was measured:
Type in all cases: cell-based
Human keratinocytes [1] = experiment: Transglutaminase Assay (TGase I ELISA, Example 1 procedure), normalized to DNA; keratinocyte differentiation; conditions: 2.5 x 10^-7M, 2.5 x 10^-8M and 2.5x10^-9M, vs ethanol control
Procedure: Human keratinocytes, isolated from neonatal foreskin by trypsin treatment were grown in Dulbecco Modification Eagle (DME) Hams F12 (1:1) medium/10% fetal calf serum in the presence of irradiated 3T3 mouse fibroblasts for establishing dividing keratinocyte colonies. Cells were grown under the above condition until their second passage and kept frozen for future use. Frozen second passage keratinocytes were thawed and plated into the above medium and grown for five days before they were switched to a serum-free MCDB 153-based medium keratinocyte growth medium (KGM) from Clonetics Corporation, San Diego, CA, containing 0.15 mM Ca, or keratinocyte serum-free media (KSFM) from GIBCO containing 0.09 mM Ca). On day 7, when the cells were 80-90% confluent, they were trypsinized and plated in the serum-free medium for the various experiments. […]
Keratinocytes (cultured as described above) were plated in 96 well plates at a density of 3,000 cells per well in 200 µl media. […] The absorbance of samples was read at 492nm in the plate reader. […] TGase levels were determined by subtracting background from the readings from each treatment and determining mean ± s.d. for the replicates exposed to both antibodies.
The level of TGase I detected after treatment of the cells could be influenced by cell number, i.e., the greater the number of cells the greater the level of TGase-1 detected. […]

Human keratinocytes [2] = experiment: 3H-Thymidine incorporation, keratinocyte proliferation; conditions: 250 nM
Procedure: (§1) Human keratinocytes, isolated from neonatal foreskin by trypsin treatment were grown in Dulbecco Modification Eagle (DME) Hams F12 (1:1) medium/10% fetal calf serum in the presence of irradiated 3T3 mouse fibroblasts for establishing dividing keratinocyte colonies. Cells were grown under the above condition until their second passage and kept frozen for future use. Frozen second passage keratinocytes were thawed and plated into the above medium and grown for five days before they were switched to a serum-free MCDB 153-based medium keratinocyte growth medium (KGM) from Clonetics Corporation, San Diego, CA, containing 0.15 mM Ca, or keratinocyte serum-free media (KSFM) from GIBCO containing 0.09 mM Ca). On day 7, when the cells were 80-90% confluent, they were trypsinized and plated in the serum-free medium for the various experiments.
The incorporation of ^3H-thymidine by cultured keratinocytes was used as an assay of keratinocyte proliferation. Thymidine is one of four deoxynucleosides which are the monomeric units of DNA, the universal library of genetic information in the animal kingdom. Prior to cell division of a somatic cell such as a keratinocyte, the complete genome of the cell undergoing cell division is replicated. This involves large scale DNA synthesis by the cell and enables both daughter cells to receive identical copies of the genetic material. When ^3H-thymidine is included in the culture media of keratinocytes which are synthesizing DNA in preparation for cell division then the labelled nucleoside is incorporated into the newly synthesized DNA. The extent of incorporation of ^3H-thymidine into a population of cells is proportional to the rate of DNA synthesis by this population of cells and therefore an indication of their cellular proliferation.
Keratinocytes (that were cultured as described above) were plated in 24 well plates at a density of 20,000 cells per well in 1 ml media. After incubation for four days or until the cells were 60-70% confluent, the media was changed. Test compounds were added (in triplicate) to the wells 24 hours after the media change, and four hours later 1µCi ^3H-Thymidine in 50 µl media was added per well. Cells were incubated for a further 24 hours. Media was removed from the cells, 10% ice cold trichloroacetic acid (TCA) added and plates were incubated on ice for 30 minutes. Cells were washed five times with 5% TCA and allowed to dissolve in 500 µl 0.1M NaOH for at least one hour (usually overnight). The preparations were neutralized with 0.1M HCl; 50 µl of the cell preparation was used to determine total protein content. Disintegrations per minute (DPM) from ^3H labelling of DNA was determined by liquid scintillation counting of 900µl of the cell preparation. Thymidine incorporation results were expressed as DPM/µg protein.

Human keratinocytes [3] = experiment: Transglutaminase Assay (TGase I ELISA, procedure for other Examples), normalized to DNA; keratinocyte differentiation
Procedure: as §1
During the process of terminal differentiation in the epidermis, a 15nm thick layer of protein, known as the cornified envelope (CE) is formed on the inner surface of the cell periphery. The CE is composed of numerous distinct proteins which have been cross-linked together by the formation of N^ε-(γ-glutamyl) lysine isodipeptide bonds catalyzed by the action of at least two different transglutaminases (TGases) expressed in the epidermis. Transglutaminase I (TGase I) is expressed in abundance in the differentiated layers of the epidermis, especially the granular layer, but is absent in the undifferentiated basal epidermis. Thus TGase I is a useful marker of epidermal keratinocyte differentiation with high TGase I levels indicating a more differentiated state. An ELISA based TGase I assay, using a TGase I antibody, was used to assess the state of differentiation of the cultured keratinocytes in the examples that follow.
Keratinocytes (cultured as described above) were plated in 96 well plates at a density of 3,000 cells per well in 200µl of cell culture media. After incubation for four days, the media was changed to media containing test compounds (six replicates per test). The cells were cultured for a further 72 hours after which time the media was aspirated and the plates stored at -70°C. After the plates were removed from the freezer, the cells were further freezed fractured by freezing and thawing and then washed 3x with PBS. The cells were incubated for one hour at room temperature (R/T) with TBS/5% BSA buffer. Cells were then incubated with 100µl of monoclonal anti-human transglutaminase (IgG) mouse antibody (primary antibody) obtained from Biomedical Technologies Inc. diluted 1:2000 in TBS/1% BSA buffer for two hours at 37°C, and then rinsed six times with wash buffer (TBS/1% BSA/0.05% Tween-20). Cells were next incubated with 100µl of Fab fragment, peroxidase conjugated anti-mouse IgG antibody (secondary antibody) from Amersham diluted 1:4,000 in wash buffer for two hours at 37°C and then rinsed three times with wash buffer and three times with PBS. Cells were incubated with substrate solution (4mg o-phenylene diamine and 3.3µl 30% H2O2 in 10mL 0.1M citrate buffer, pH 5.0) for five minutes at R/T and in darkness (under aluminum foil). The reaction was stopped by the addition of 50µl 4N H2SO4. The absorbance of samples was read at 492nm in the plate reader. Out of the six replicates, four were treated with both antibodies, two were treated only with the secondary antibody (i.e., to determine the background binding of the enzyme conjugated antibody). Transglutaminase I levels were determined by subtracted background from the readings from each treatment and determining the mean ± s.d. for the replicates exposed to both antibodies.
The level of TGase I detected after treatment of the cells could be influenced by cell number, i.e., the greater the number of cells the greater the level of TGase-1 detected. The level of Tgase I was normalized to DNA content of the cells in the same well thus eliminating variation due to differences in cell number. […]

CC1=C(/C=C/C(C)=C/C=C/C(C)=C/CO)C(C)(C)CCC1 [retinol]
Transglutaminase levels normalized to DNA content of the cells (Human keratinocytes [1]): decrease in transglutaminase level was dose dependent
% Control (Human keratinocytes [2]; Table 9A, Experiment #1): 108%
DPM/Microgram Protein mean (Human keratinocytes [2]; Table 9A, Experiment #1): 2082 DPM/Microgram Protein
% Control (Human keratinocytes [2]; Table 9B, Experiment #2): 107%
DPM/Microgram Protein mean (Human keratinocytes [2]; Table 9B, Experiment #2): 974 DPM/Microgram Protein
% Control (Human keratinocytes [3]; Table 7, experiment 1, 0.001 mM, transglutaminase normalized to DNA): 67%
TGase/ DNA (% control) (Human keratinocytes [3]; Table 11, 2.5x10^-9M, 72 hour treatment): 91%
TGase/ DNA (% control) (Human keratinocytes [3]; Table 11, 2.5x10^-9M, 72 hour treatment, listed as Retinol): 92%
mean TGase/ DNA x10^5 ± s.d (Human keratinocytes [3]; Table 11, 2.5x10^-9M, 72 hour treatment, n = 3): 48.31 ± 5.31
TGase/ DNA (% control) (Human keratinocytes [3]; Table 13, 2.5x10^-7M, 72 hour treatment): 90%

Source: EP0932387B1 (UNILEVER PLC, priority 1996, dated 1998)
